Measured values published in patent US20220298135A1, “5-HETEROARYL-PYRIDIN-2-AMINE COMPOUNDS AS NEUROPEPTIDE FF RECEPTOR ANTAGONISTS” (Domain Therapeutics, priority 2019, published 2022).

Columns and labels:
[1] = molecular target: T1, human NPFFR1 (hNPFFR1) receptor (Homo sapiens, UniProt Q9GZQ6); assay: Human NPFFR1 evaluation using BRET biosensors (antagonist IC50); type: cell-based; details: hNPFFR1 transiently over-expressed in HEK-293 T cells; BRET signal; stimulation by EC80 RFRP-3
T1 construct: expressed in transfected cells; host or cells: HEK-293 T cells, transient co-transfection with polyethylenimine
T1 sequence (Q9GZQ6 whole entry): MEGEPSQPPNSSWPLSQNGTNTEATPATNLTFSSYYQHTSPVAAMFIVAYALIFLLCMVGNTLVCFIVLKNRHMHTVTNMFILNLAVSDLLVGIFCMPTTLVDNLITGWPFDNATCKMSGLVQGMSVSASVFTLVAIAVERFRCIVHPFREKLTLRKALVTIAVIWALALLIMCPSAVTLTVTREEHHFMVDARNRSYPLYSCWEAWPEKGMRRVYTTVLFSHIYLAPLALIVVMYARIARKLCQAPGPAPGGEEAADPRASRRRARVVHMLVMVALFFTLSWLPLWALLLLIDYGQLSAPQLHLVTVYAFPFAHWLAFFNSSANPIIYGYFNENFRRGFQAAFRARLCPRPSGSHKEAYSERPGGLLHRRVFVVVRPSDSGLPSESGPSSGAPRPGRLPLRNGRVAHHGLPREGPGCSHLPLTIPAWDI
Method: Compounds of the present invention were tested successively for their agonist and antagonist activities on human NPFFR1 (hNPFFR1) receptor transiently over-expressed in HEK-293 T cells. Compounds exert agonist activity if, by themselves in absence of neuropeptide RFRP-3 (also named NPVF) they activate hNPFFR1; and they exert antagonist activity if they decrease the action of RFRP-3 on the receptor.
The assay used to measure compound activity is based on BRET (Bioluminescence Resonance Energy Transfer) biosensors and is designed to monitor the plasma membrane translocation of protein that interacts with specific Ga subunit. The specific effector (luciferase tagged: BRET donor) recruited at the membrane will be in close proximity to a plasma membrane anchor (GFP tagged: BRET acceptor) to induce a BRET signal. Biosensors are described in the patent application WO 2016/041093 A1 (Biosensors for monitoring biomolecule localization and trafficking in cells).
HEK-293 T cells are maintained in Dulbecco's Modified Eagle's Medium supplemented with 10% Foetal Calf Serum, 1% Penicillin/Streptomycin at 37° C./5% CO2.
Cells are co-transfected using polyethylenimine (25 kDa linear) with four DNA plasmids encoding: hNPFFR1, GαoB, a Gi family specific intracellular effector fused to luciferase (BRET donor), a plasma membrane effector fused to GFP (BRET acceptor). After transfection, cells are cultured for 48 h at 37° C./5% CO2.
Receptor activity is detected by changes in BRET signal.
On the day of the assay, cells are detached using trypsin 0.05%, resuspended in assay buffer (1.8 mM CaCl2, 1 mM MgCl2, 2.7 mM KCl, 137 mM NaCl, 0.4 mM NaH2PO4, 5.5 mM D-Glucose, 11.9 mM NaHCO3, 25 mM Hepes) and seeded in 384 well plate at a density of 20,000 cells per well. Then, plates are equilibrated 3.5 hours at 37° C. before adding compounds.
Compounds and luciferase substrate are added to the cells using an automated device (Freedom Evo®, Tecan) and BRET readings are collected on EnVision (PerkinElmer) with specific filters (410 nm BW 80 nm, 515 nm BW 30 nm).
Agonist and antagonist activities of compounds are consecutively evaluated on the same cell plate. Agonist activity is first measured after 10 minutes incubation with compound alone on the cells. Then, cells are stimulated by an EC80 RFRP-3 concentration and luminescence is recorded for additional 10 minutes. EC80 RFRP-3 concentration is the concentration giving 80% of the maximal RFRP-3 response. Agonist or antagonist activities are evaluated in comparison to basal signals evoked by assay buffer or EC80 RFRP-3 alone, respectively.
For IC50 determination, a dose-response test is performed using 20 concentrations (ranging over 6 logs) of each compound. Dose-response curves are fitted using the sigmoidal dose-response (variable slope) analysis in GraphPad Prism software (GraphPad Software) and IC50 of antagonist activity is calculated. Dose-response experiments are performed in duplicate, in two independent experiments.

| Compound | melting point [°C] | IC50 [1] [nM] |
| --- | --- | --- |
| Cl.Nc1ccc(-c2cccc3cc(F)cnc23)c(N)n1 [Example 58, 3-(3-fluoroquinolin-8-yl)pyridine-2,6-diamine] | 114 to 116 | < 100 |
| Cl.Nc1ccc(-c2c(F)ccc3ccc(O)nc23)c(N)n1 [Example 62, 8-(2,6-diaminopyridin-3-yl)-7-fluoroquinolin-2-ol] | 210 to 230 | < 100 |
| Nc1ccc(-c2c[nH]c3ccccc23)c(N)n1 [Example 18, 3-(1H-indol-3-yl)pyridine-2,6-diamine] | 152 to 155 | > 1000 |
| Cl.Nc1ccc(-c2c(F)ccc3cccnc23)c(CCCC(F)(F)F)n1 [Example 71, 5-(7-fluoroquinolin-8-yl)-6-(4,4,4-trifluorobutyl)pyridin-2-amine] | 70 to 130 | < 100 |
| CCc1nc(N)ccc1-c1cccc2ccc(C(=O)N(CC)C3CCCCC3)nc12.Cl [Example 168, 8-(6-amino-2-ethylpyridin-3-yl)-N-cyclohexyl-N-ethylquinoline-2-carboxamide] | 142 to 148 | < 100 |
| CCc1nc(N)ccc1-c1ccccc1-c1cncc(C)c1.Cl [Example 85, 6-ethyl-5-(2-(5-methylpyridin-3-yl)phenyl)pyridin-2-amine] | 120 to 150 | 100 to 1000 |
| CCc1nc(N)ccc1-c1cccc2ccc(-c3ccncc3)nc12.Cl [Example 122, 6-ethyl-5-(2-(pyridin-4-yl)quinolin-8-yl)pyridin-2-amine] | > 250 | < 100 |
| Cl.Nc1ccc(-c2csc3ccccc23)c(N)n1 [Example 21, 3-(Benzothiophen-3-yl)pyridine-2,6-diamine] | 35 to 38 | 100 to 1000 |
| CCc1nc(N)ccc1-c1cccc2ccc(-c3cnccn3)nc12.Cl [Example 126, 6-ethyl-5-(2-(pyrazin-2-yl)quinolin-8-yl)pyridin-2-amine] | > 250 | < 100 |

The remaining lines, values ahead:

| melting point [°C] | IC50 [1] [nM] | Compound |
| --- | --- | --- |
| 120 to 160 | < 100 | CCc1nc(N)ccc1-c1c(OC(F)F)ccc2cccnc12.Cl [Example 105, 5-(7-(difluoromethoxy)quinolin-8-yl)-6-ethylpyridin-2-amine] |
| > 250 | < 100 | CCc1nc(N)ccc1-c1cccc2cccnc12.Cl [Example 47, 6-ethyl-5-(quinolin-8-yl)pyridin-2-amine] |
| 85 to 145 | 100 to 1000 | Cl.Nc1ccc(-c2c(F)ccc3cccnc23)c(CCC(F)(F)F)n1 [Example 69, 5-(7-fluoroquinolin-8-yl)-6-(3,3,3-trifluoropropyl)pyridin-2-amine] |
| 100 to 150 | < 100 | CCc1nc(N)ccc1-c1cccc2ccc(N3CCOCC3)nc12.Cl [Example 129, 6-ethyl-5-(2-morpholinoquinolin-8-yl)pyridin-2-amine] |
| 64 to 88 | 100 to 1000 | CCc1nc(N)ccc1-c1csc2ccc(C)cc12.Cl [Example 42, 6-Ethyl-5-(5-methylbenzothiophen-3-yl)pyridin-2-amine] |
| 153 to 169 | < 100 | CCc1nc(N)ccc1-c1cccc2cc3c(nc12)CCC3.Cl [Example 115, 5-(2,3-dihydro-1H-cyclopenta[b]quinolin-5-yl)-6-ethylpyridin-2-amine] |
| 47 to 65 | < 100 | CCc1nc(N)ccc1-c1c(F)ccc2c1OCCCC2.Cl [Example 179, 6-ethyl-5-(8-fluoro-2,3,4,5-tetrahydrobenzo[b]oxepin-9-yl)pyridin-2-amine] |
| 85 to 95 | < 100 | CCc1nc(N)ccc1-c1c(F)ccc2c1OCCC2.Cl [Example 176, 6-ethyl-5-(7-fluorochroman-8-yl)pyridin-2-amine] |
| 50 to 56 | < 100 | CCc1nc(N)ccc1-c1cc(F)cc2cccnc12.Cl [Example 74, 6-ethyl-5-(6-fluoroquinolin-8-yl)pyridin-2-amine] |
